Laboratory results taken from US8518460B2, “Use of total coumarins of cnidium fruit in preparing medicaments for treating psoriasis” (priority 2002, dated 2013).

Test system: swelling of rat toes induced by egg-white
Test: Swelling of rat toes induced by egg-white injection
Assay type: in vivo, rats
Conditions: 0.3 g ointment per toe, repeated after 0.5 hour
Protocol: 50 SD rats, 150 g±10 g, were divided randomly into five groups. The volume of the toes at the same side of rats among the 5 groups was measured. 10% of egg white was injected into the toes, 0.2 ml each toe. After that, rats of two groups were anointed respectively with 0.15 g and 0.3 g of an ointment of total coumarins (containing 10% total coumarins) at each toe. Rats of other two groups were respectively anointed with 0.3 g of a blank ointment and 0.3 g of an ointment of anthralin at each toe. The rest one group was treated nothing as a control. 0.5 hour later, the above treatment was repeated. At 1st, 2nd, 4th, and 6th hour the volume of the toes were measured. The difference of the volume was regarded as the degree of the swelling of the toes.

## O=C1c2c(O)cccc2Cc2cccc(O)c21 [Anthralin, anthralin]
1 h
  Degree of toe swelling (volume increase): 0.408 ± 0.201 mL
2 h
  Degree of toe swelling (volume increase): 0.391 ± 0.209 mL
4 h
  Degree of toe swelling (volume increase): 0.375 ± 0.189 mL
6 h
  Degree of toe swelling (volume increase): 0.351 ± 0.165 mL
